What was measured:
pERK = experiment: Skin punch biopsy pERK immunohistochemistry; type: in vivo, human; conditions: cycle 1 day 15
Description: Skin punch biopsies (with hair follicles, if feasible) were obtained from patients in the dose-escalation phase and colorectal cancer expansion phase cohorts pre-dose at baseline and post dose within 7 days of cycle 1 day 15 for measurement of Ki67 and pERK expression. Ki67 and pERK expression were determined by immunohistochemistry using a Ki67 rabbit monoclonal antibody (clone 30-9; Ventana Medical Systems, Inc., Tucson, AZ, USA) and a pERK rabbit monoclonal antibody (Thr202/Tyr204, clone 20G11; Cell Signaling Technology, Inc., Danvers, MA), respectively, visualised with DAB and counterstained with haematoxylin. Ki67 was expressed as percentage of tumour cells with positive stain; pERK was expressed as an H-score.

[1] = tested on: biliary cancer, KRAS- or BRAF-mutant colorectal cancer; experiment: Kaplan–Meier PFS and OS, expansion phase cohorts; type: in vivo, human
Description: All patients who received ⩾1 dose of binimetinib were included in the safety analysis. Patients in the safety analysis who had ⩾1 measurable lesion at baseline and at least 1 post-baseline disease assessment were evaluable for efficacy. Kaplan–Meier estimates of progression-free survival (PFS) and overall survival (OS) were performed for patients in the expansion phase ([Kaplan and Meier, 1958]) using SAS Version 9.2 (SAS Institute Inc., Cary, NC, USA).

[2] = BRAF-mutant colorectal cancer cohort (45 mg BID)
[3] = KRAS-mutant colorectal cancer 45 mg dose cohort
[4] = KRAS-mutant colorectal cancer 60 mg dose cohort

Structure (SMILES): Cn1cnc2c(F)c(Nc3ccc(Br)cc3F)c(C(=O)NOCCO)cc21 [binimetinib]
- Skin expression of pERK, median (range) percent of baseline (pERK; 30 mg BID (n=4)): 88 (50–100) percent of baseline
- Skin expression of pERK, median (range) percent of baseline (pERK; 45 mg BID (n=22)): 66 (38–189) percent of baseline
- Skin expression of pERK, median (range) percent of baseline (pERK; 60 mg BID (n=7)): 59 (29–72) percent of baseline
- Skin expression of pERK, median (range) percent of baseline (pERK; Total (N=33)): 64 (29–189) percent of baseline
- Median OS [1, 2]: 7.1 months
- Median PFS [1, 2]: 1.4 months
- Median OS [1, 3]: 4.7 months
- Median PFS [1, 3]: 1.5 months
- Median OS [1, 4]: 9.1 months
- Median PFS [1, 4]: 3.5 months
- Median OS ([1]; biliary cohort (60 mg BID)): 4.8 months
- Median PFS ([1]; biliary cohort (60 mg BID)): 2.1 months

— PMC5344293, “A phase 1 dose-escalation and expansion study of binimetinib (MEK162), a potent and selective oral MEK1/2 inhibitor” (British Journal of Cancer, 2017)
